pKi: −log10 of the molar value.

The assay in a line: Inhibition of [3H](+)-pentazocine binding to sigma receptor of guinea pig brain homogenates.
In general, pKi refers to the Ki on a negative log10 scale, so that one unit is a factor of ten. A higher pKi goes with a low Ki. The molecule `c1ccc2sc(C3(N4CCCCCC4)CCCCCC3)cc2c1` [1-(1-Benzo[b]thiophen-2-yl-cycloheptyl)-azepane] showed a pKi of 5.57.

Molecule `c1ccc2sc(C3(N4CCCCC4)CCCCCC3)cc2c1` [1-(1-Benzo[b]thiophen-2-yl-cycloheptyl)-piperidine] showed a pKi of 5.65. This pKi and that of the molecule before are within 0.2 log units of each other.

`c1ccc2sc(C3(N4CCCC4)CCCCCC3)cc2c1` [1-(1-Benzo[b]thiophen-2-yl-cycloheptyl)-pyrrolidine] had a pKi of 6.14.

Consider `c1ccc2sc(C3(N4CCCCCC4)CCCCC3)cc2c1` [1-(1-Benzo[b]thiophen-2-yl-cyclohexyl)-azepane], for which the pKi is 6.17. This pKi and that of the molecule before are within 0.2 log units of each other.

As to `c1ccc2sc(C3(N4CCCC4)CCCCC3)cc2c1` [1-(1-Benzo[b]thiophen-2-yl-cyclohexyl)-pyrrolidine], the pKi is 6.77. Compared with the last molecule, the pKi is 0.60 log units higher.

Consider `c1ccc2sc(C3(N4CCCCCC4)CCCC3)cc2c1` [1-(1-Benzo[b]thiophen-2-yl-cyclopentyl)-azepane], for which the pKi is 5.54.

On to `c1ccc2sc(C3(N4CCCCC4)CCCC3)cc2c1` [1-(1-Benzo[b]thiophen-2-yl-cyclopentyl)-piperidine], for which the pKi was 5.96.

As for `c1ccc2sc(C3(N4CCCC4)CCCC3)cc2c1` [1-(1-Benzo[b]thiophen-2-yl-cyclopentyl)-pyrrolidine], the pKi was 6.90.

`NC1(c2cc3ccccc3s2)CCCCCC1` [1-Benzo[b]thiophen-2-yl-cycloheptylamine] had a pKi of 5.04.

With `NC1(c2cc3ccccc3s2)CCCCC1` [1-Benzo[b]thiophen-2-yl-cyclohexylamine], the pKi was 5.50.

As for `NC1(c2cc3ccccc3s2)CCCC1` [1-Benzo[b]thiophen-2-yl-cyclopentylamine], the pKi is 5.76.
